Experiments:
ALOMY [1] = experiment: Pre-emergence action against ALOMY; type: in vivo, Alopecurus myosuroides; conditions: dosage 320 g/ha; pre-emergence; scored visually after 3 weeks vs untreated controls; 100% = plants have died, 0% = like control plants
Summary of the method: (§1)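 Seeds sown in sandy loam in wood-fiber pots and covered with soil. Greenhouse growth; visual damage scored after 3 weeks versus untreated controls (100% = dead, 0% = like control).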

AVEFA [2] = experiment: Pre-emergence action against AVEFA; type: in vivo, Avena fatua; conditions: dosage 320 g/ha, scored visually after 3 weeks vs untreated controls
Summary of the method: as §1

CYPES [3] = experiment: Pre-emergence action against CYPES; type: in vivo, Cyperus esculentus; conditions: pre-emergence, dosage 320 g/ha, scored visually after 3 weeks vs untreated controls
Summary of the method: as §1

ECHCG [4] = experiment: Pre-emergence action against ECHCG; type: in vivo, Echinochloa crus-galli; conditions: pre-emergence, dosage 320 g/ha, scored visually after 3 weeks vs untreated controls
Summary of the method: as §1

SETVI [5] = experiment: Pre-emergence action against SETVI; type: in vivo, Setaria viridis; conditions: pre-emergence, dosage 320 g/ha, scored visually after 3 weeks vs untreated controls
Summary of the method: as §1

ABUTH [6] = experiment: Pre-emergence action against ABUTH; type: in vivo, Abutilon theophrasti; conditions: pre-emergence, dosage 320 g/ha, scored visually after 3 weeks vs untreated controls
Summary of the method: as §1

AMARE [7] = experiment: Pre-emergence action against AMARE; type: in vivo, Amaranthus retroflexus; conditions: pre-emergence, dosage 320 g/ha, scored visually after 3 weeks vs untreated controls
Summary of the method: as §1

MATIN [8] = experiment: Pre-emergence action against MATIN; type: in vivo, Matricaria inodora; conditions: Dosage 320 g/ha, pre-emergence
Summary of the method: as §1

PHBPU [9] = experiment: Pre-emergence action against PHBPU; type: in vivo, Pharbitis purpurea; conditions: Dosage 320 g/ha, pre-emergence
Summary of the method: as §1

POLCO [10] = experiment: Pre-emergence action against POLCO; type: in vivo, Polygonum convolvulus; conditions: Dosage 320 g/ha, pre-emergence
Summary of the method: as §1

STEME [11] = experiment: Pre-emergence action against STEME; type: in vivo, Stellaria media; conditions: Dosage 320 g/ha, pre-emergence
Summary of the method: as §1

VIOTR [12] = experiment: Pre-emergence action against VIOTR; type: in vivo, Viola tricolor; conditions: Dosage 320 g/ha, pre-emergence
Summary of the method: as §1

VERPE [13] = experiment: Pre-emergence action against VERPE; type: in vivo, Veronica persica; conditions: Dosage 320 g/ha, pre-emergence
Summary of the method: as §1

ALOMY [14] = experiment: Post-emergence action against ALOMY; type: in vivo, Alopecurus myosuroides; conditions: Dosage 80 g/ha, post-emergence
Procedure: (§2) Seeds of monocotyledonous and dicotyledonous weed and crop plants are laid out in sandy loam soil in wood-fiber pots, covered with soil and cultivated in a greenhouse under good growth conditions. 2 to 3 weeks after sowing, the test plants are treated at the one-leaf stage. The compounds of the invention, formulated in the form of wettable powders (WP) or as emulsion concentrates (EC), are then sprayed onto the green parts of the plants in the form of an aqueous suspension or emulsion at a water application rate equating to […], with addition of 0.2% wetting agent. After the test plants have been left to stand in the greenhouse under optimal growth conditions for about 3 weeks, the action of the preparations is assessed visually in comparison to untreated controls (herbicidal action in percent (%): 100% activity=the plants have died, 0% activity=like control plants). […] At the same time, inventive compounds leave Gramineae crops such as barley, wheat, rye, millet/Sorghum, corn or rice virtually undamaged when applied post-emergence, even at high active ingredient dosages. In addition, some substances are also harmless to dicotyledonous crops such as soya, cotton, oilseed rape, sugar beet or potatoes. Some of the compounds according to the invention have high selectivity and are therefore suitable for controlling unwanted vegetation in agricultural crops by the post-emergence method. The data of Tables B18 to B34 below illustrate, in an exemplary manner, the […] herbicidal action of the compounds according to the invention, the herbicidal activity being stated in percent.

AVEFA [15] = experiment: Post-emergence action against AVEFA; type: in vivo, Avena fatua; conditions: post-emergence, dosage 80 g/ha, visual assessment about 3 weeks after treatment vs untreated controls
Procedure: as §2

CYPES [16] = experiment: Post-emergence action against CYPES; type: in vivo, Cyperus esculentus; conditions: post-emergence, dosage 80 g/ha, visual assessment about 3 weeks after treatment vs untreated controls
Summary of the method: (§3)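 Post-emergence foliar spray on greenhouse plants at the one-leaf stage, using wettable-powder or emulsion-concentrate formulations in water (600 to […], plus 0.2% wetting agent). Damage scored by eye roughly 3 weeks later against untreated plants: 0% = like control, 100% = dead.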

ECHCG [17] = experiment: Post-emergence action against ECHCG; type: in vivo, Echinochloa crus-galli; conditions: post-emergence, dosage 80 g/ha, visual assessment about 3 weeks after treatment vs untreated controls
Summary of the method: as §3

SETVI [18] = experiment: Post-emergence action against SETVI; type: in vivo, Setaria viridis; conditions: post-emergence, dosage 80 g/ha, visual assessment about 3 weeks after treatment vs untreated controls
Summary of the method: as §3

ABUTH [19] = experiment: Post-emergence action against ABUTH; type: in vivo, Abutilon theophrasti; conditions: post-emergence, dosage 80 g/ha, visual assessment about 3 weeks after treatment vs untreated controls
Summary of the method: as §3

AMARE [20] = experiment: Post-emergence action against AMARE; type: in vivo, Amaranthus retroflexus; conditions: post-emergence, dosage 80 g/ha, visual assessment about 3 weeks after treatment vs untreated controls
Summary of the method: as §3

MATIN [21] = experiment: Post-emergence action against MATIN; type: in vivo, Matricaria inodora; conditions: post-emergence, dosage 80 g/ha, visual assessment about 3 weeks after treatment vs untreated controls
Summary of the method: as §3

PHBPU [22] = experiment: Post-emergence action against PHBPU; type: in vivo, Pharbitis purpurea; conditions: post-emergence, dosage 80 g/ha
Summary of the method: as §3

STEME [23] = experiment: Post-emergence action against STEME; type: in vivo, Stellaria media; conditions: post-emergence, dosage 80 g/ha
Summary of the method: as §3

VIOTR [24] = experiment: Post-emergence action against VIOTR; type: in vivo, Viola tricolor; conditions: post-emergence, dosage 80 g/ha
Summary of the method: as §3

VERPE [25] = experiment: Post-emergence action against VERPE; type: in vivo, Veronica persica; conditions: dosage 80 g/ha
Summary of the method: as §3

POLCO [26] = experiment: Post-emergence action against POLCO; type: in vivo, Polygonum convolvulus; conditions: post-emergence, dosage 80 g/ha
Summary of the method: as §3

Row | SMILES | Pre-emergence action against ALOMY (herbicidal activity in percent) (ALOMY [1]) | Pre-emergence action against AVEFA (herbicidal activity) (AVEFA [2]) | Pre-emergence action against CYPES (herbicidal activity) (CYPES [3]) | Pre-emergence action against ECHCG (herbicidal activity) (ECHCG [4]) | SETVI (Table B8, pre-emergence herbicidal activity) (SETVI [5]) | Pre-emergence action against ABUTH (herbicidal activity) (ABUTH [6]) | Pre-emergence action against AMARE (herbicidal activity) (AMARE [7]) | Pre-emergence action against MATIN (MATIN [8]) | Pre-emergence action against STEME (STEME [11]) | Pre-emergence action against VIOTR (VIOTR [12]) | Pre-emergence action against VERPE (VERPE [13]) | Post-emergence action against ALOMY (ALOMY [14]) | Post-emergence action against AVEFA (herbicidal action in percent) (AVEFA [15]) | Post-emergence action against CYPES (herbicidal action in percent) (CYPES [16]) | Post-emergence action against ECHCG (herbicidal action in percent) (ECHCG [17]) | Post-emergence action against SETVI (herbicidal action in percent) (SETVI [18]) | Post-emergence action against ABUTH (herbicidal action in percent) (ABUTH [19]) | Post-emergence action against MATIN (herbicidal action in percent) (MATIN [21]) | Post-emergence action against PHBPU (PHBPU [22]) | Post-emergence action against STEME (STEME [23]) | also measured
1 | CCn1nnnc1NC(=O)c1ccc(SC)c(C(C)=O)c1Cl [2-121] | 90% | 90% | 90% | 100% | 90% | 100% | 100% | 100% | 90% | 100% | 100% | 80% | 80% | 80% | 100% | 90% | 100% | 100% | 90 | 90 | Pre-emergence action against PHBPU (PHBPU [9]): 80%; Pre-emergence action against POLCO (POLCO [10]): 100%; Post-emergence action against AMARE (herbicidal action in percent) (AMARE [20]): 100%; Post-emergence action against VIOTR (VIOTR [24]): 100; Post-emergence action against VERPE (VERPE [25]): 100
2 | CCCn1nnnc1NC(=O)c1ccc(C(F)(F)F)c(C(=O)C2CC2)c1C [3-18] | 80% | 80% | 90% | 100% | 100% | 100% | 100% | 100% | 100% | 100% | 90% | 80% | 80% | 90% | 80% | 100% | 80% | 90% | 90 | 100 | Post-emergence action against POLCO (POLCO [26]): 80; Post-emergence action against VIOTR (VIOTR [24]): 100; Post-emergence action against VERPE (VERPE [25]): 80
